Series [1] is described as follows: UV/Vis spectral properties (Cary-50 spectrophotometer). In kind it is physicochemical. Particulars: for UVA and UVB absorption properties compared to oxybenzone / absorption spectra, regions encompassed: acetonitrile; for UVA and UVB absorption properties compared to oxybenzone: 5 mM or 0.05 mM, FIG. 1; for absorption spectra, regions encompassed: 5 mM (N-Boc-Imine-6 also 0.05 mM), compared to oxybenzone, FIG. 3. As to the method:
Imine-1, Imine-2, and Imine-3 were synthesized, purified, and isolated (see above). All three compounds were separately dissolved in acetonitrile to a final concentration of 5 mM (FIG. 1) or 0.05 mM (FIG. 1, inset) and analyzed by UV/Vis (Cary-50 Spectrophotomer). The spectral properties were compared to oxybenzone in acetonitrile.
Carbamate-1, first described in U.S. Pat. No. 5,490,980A, was synthesized, purified, and isolated (see above). Carbamate-1 was dissolved in acetonitrile to a final concentration of 0.05 mM and analyzed by UV/Vis (Cary-50 Spectrophotomer). The spectral properties were compared to oxybenzone in acetonitrile at a final concentration of 0.05 mM.
Imine-4, Imine-5, and N-Boc-Imine-6 were synthesized, purified, and isolated (see above). All three compounds were separately dissolved in acetonitrile to a final concentration of 5 mM (FIG. 3) and analyzed by UV/Vis (Cary-50 Spectrophotomer). N-Boc-Imine-6 was diluted in acetonitrile to a final concentration of 0.05 mM (FIG. 3, inset) and analyzed by UV/Vis. […] Spectral properties were compared to oxybenzone in acetonitrile at the same concentration.
To understand the solution stability of the Boc-protected imines in protic solvent, N-Boc-Imine-6 was prepared in ethanol in the presence of catalytic glacial acetic acid. Briefly, to a solution of oxybenzone (0.10 g, 0.438 mmol, 1 eq) and N-Boc-1,6-hexanediamine (0.094 g, 0.43 mmol, 1 eq) in ethanol (0.3 mL) was added catalytic glacial acetic acid (1 μL). The reaction mixture was agitated at 900 rpm at 70° C. for 16 hr and monitored by LCMS. […] The reaction was then diluted in ethanol to final concentration of 0.04 mM and analyzed by UV/Vis spectroscopy.
N-Boc-Imine-8 and Imine-8 was synthesized, purified, and isolated (see above). N-Boc-Imine-8 and Imine-8 were dissolved in ethanol to a final concentration of 0.032 mM and 8 mM, respectively (FIG. 6) and analyzed by UV/Vis. (Cary-50 Spectrophotomer). Spectral properties were compared to sulisobenzone in ethanol at similar concentration.
Imine-10 was first dissolved in methyl tert-butyl ether and then diluted in ethanol to a final concentration of 5 mM and 0.04 mM (FIG. 7) and analyzed by UV/Vis. (Cary-50 Spectrophotomer). Spectral properties were compared to oxybenzone at similar concentration.

Series [2] is described as follows: Solution stability of Boc-protected imine in protic solvent (ethanol). Particulars: 70° C., catalytic glacial acetic acid, LCMS and UV/Vis. It is filed as physicochemical. As to the method:
To understand the solution stability of the Boc-protected imines in protic solvent, N-Boc-Imine-6 was prepared in ethanol in the presence of catalytic glacial acetic acid. Briefly, to a solution of oxybenzone (0.10 g, 0.438 mmol, 1 eq) and N-Boc-1,6-hexanediamine (0.094 g, 0.43 mmol, 1 eq) in ethanol (0.3 mL) was added catalytic glacial acetic acid (1 μL). The reaction mixture was agitated at 900 rpm at 70° C. for 16 hr and monitored by LCMS. Full reaction of the starting material to a single product peak was observed by LCMS indicating completion. The reaction was then diluted in ethanol to final concentration of 0.04 mM and analyzed by UV/Vis spectroscopy. […] Additionally, the Boc-protecting group remained intact throughout the reaction and UV/Vis analysis.

Data on 7 compounds can be found in patent US20220160601A1, “Sunscreen Compositions” (Curie Co. Inc., priority 2020, published 2022).

Turning to `CCCCCCOC(=O)c1ccccc1/C(=N/CCCCCCN)c1cccc(N(CC)CC)c1O` [Imine-9], in series [1] (data not shown), the “shift of the absorbance spectra” value is listed as “red shift of the absorbance spectra, which extends to the visible region”.

As to `COc1ccc(/C(=N/O)c2ccccc2)c(O)c1` [Imine-3], in series [1], the “UVA and UVB absorption properties compared to oxybenzone” value is “loss in the UVA blocking and reduction in UVB blocking”. `COc1ccc(/C(=N/C(CCC(N)=O)C(=O)O)c2ccccc2)c(O)c1` (stereo not drawn) [Imine-5]: the “absorption spectra, regions encompassed” value in series [1] was “encompassed the UVA-1, UVA-2, and UVB regions as well as the visible region of the spectrum (greater than 400 nm)”. On to `COc1cc(O)c(/C(=N\CCCCCCN)c2ccccc2)cc1S(=O)(=O)O` [Imine-8], for which, in series [1] (ethanol, N-Boc-Imine-8 0.032 mM, Imine-8 8 mM, FIG. 6), the “UVA and UVB absorption properties compared to sulisobenzone” value is “retained absorbance in the UVB region and extended absorbance into the UVA region”. With `COc1ccc(/C(=N/CCCCCCNC(=O)OC(C)(C)C)c2ccccc2)c(O)c1` [N-Boc-Imine-6], the “absorption spectra, regions encompassed” value in series [1] is “encompassed the UVA-1, UVA-2, and UVB regions as well as the visible region of the spectrum (greater than 400 nm)”. Moreover, the “absorption, regions encompassed” value in series [1] (ethanol, 0.04 mM, FIG. 4) was “encompasses the UVA and UVB regions as well as the visible region of the spectrum (greater than 400 nm)”. In series [2], the “solution stability without reversion to the starting ketone and amine” value is on record as “stable over 24 hours”. Consider `COc1ccc(/C(=N/Cc2ccccc2)c2ccccc2)c(O)c1` [Imine-1], for which the “UVA and UVB absorption properties compared to oxybenzone” value in series [1] was “improved both UVA-1, UVA-2, and UVB absorption properties”. On the same count and under the same terms, under `COc1ccc(/C(=N/c2ccccc2)c2ccccc2)c(O)c1` [Imine-2] stands “improved both UVA-1, UVA-2, and UVB absorption properties”.
